Assay results reported in article PMC10094921, “A Lipidated Single-B-Chain Derivative of Relaxin Exhibits Improved In Vitro Serum Stability without Altering Activity” (International Journal of Molecular Sciences, 2023).
No end group written: not given here.

Columns and labels:
[1] = target: T1, 7BP protein (RXFP1 extracellular domain attached with a single TM domain) (Homo sapiens, UniProt Q9HBX9); test: Eu-H2 relaxin competition binding in HEK-7BP cells, BSA free; conditions: HEK-293T cells stably expressing 7BP, BSA excluded from buffer, mean ± SEM, n in brackets, one-site fit, read-out: HEK-7BP Binding B.S.A. Free Eu-H2 pKi (n) (converted)
T1 construct: RXFP1 extracellular domain attached with a single TM domain instead of the native 7 TM domain; single transmembrane domain replacing the native 7 TM domain (heterologous); expressed in transfected cells; host or cells: HEK-293T cells stably expressing 7BP (HEK-7BP)
T1 sequence (Q9HBX9 1-409 limits assumed): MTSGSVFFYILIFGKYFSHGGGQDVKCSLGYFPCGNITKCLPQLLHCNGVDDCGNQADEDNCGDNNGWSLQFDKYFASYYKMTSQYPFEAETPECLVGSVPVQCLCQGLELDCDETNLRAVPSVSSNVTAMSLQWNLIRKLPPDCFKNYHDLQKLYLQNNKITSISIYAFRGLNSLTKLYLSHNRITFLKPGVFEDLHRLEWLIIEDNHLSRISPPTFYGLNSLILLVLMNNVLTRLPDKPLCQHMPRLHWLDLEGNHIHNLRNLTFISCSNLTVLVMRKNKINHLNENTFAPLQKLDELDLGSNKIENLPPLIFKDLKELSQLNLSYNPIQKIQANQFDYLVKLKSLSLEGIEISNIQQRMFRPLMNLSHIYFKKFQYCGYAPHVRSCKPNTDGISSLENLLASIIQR
Experimental: 3.6. HEK-7BP Binding Assays
HEK-293T cells stably expressing the 7BP protein (HEK-7BP; RXFP1 extracellular domain attached with a single TM domain instead of the native 7 TM domain [30]) were plated in 96-well plates. The medium was aspirated off, and the cells were washed with phosphate-buffered saline (PBS) before competition binding assays were performed with Eu-H2 Relaxin (RXFP1 ligand), as previously described, with the only difference being that BSA was excluded from the binding assay buffer. Competition binding curves for each peptide were performed in triplicate, and each experiment was performed independently at least three times. Fluorescent measurements were carried out on a BMG POLARstar plate reader (BMG Labtech, Melbourne, Australia). Pooled data are presented as mean ± SE of specific binding and are fitted using a one-site binding curve in GraphPad Prism version 8 (GraphPad Inc., San Diego, CA, USA). Statistical analyses were conducted using a one-way analysis of variance with uncorrected Fisher’s least significant difference (LSD) post-hoc analysis in GraphPad Prism version 8.

[2] = In vitro serum stability assay; assay type: in vitro ADME, human; conditions: 37 °C
Experimental: 3.7. In Vitro Serum Stability Assay
A total of 400 µL of human serum was taken, and 200 µg peptide dissolved in 100 µL of water was added to human serum at 37 °C. A total of 80 µL of samples was removed at various time points (0 min, 30 min, 60 min, 120 min, 240 min, and 480 min), and 160 µL of acetonitrile was added to precipitate plasma proteins. The solution was then centrifuged at 12,000 rpm for 15 min at 4 °C. A total of 200 µL of supernatant was taken out and mixed with 240 µL of milli-Q water, and each sample was analyzed by RP-HPLC (2 × 80 μL injection), by measuring the area under the peak at the appropriate retention time compared to the peak area of the peptide at time zero minute (100%). Data analysis (n = 3, duplicate) was performed using Prism Version 8.0.2, a non-linear-fit one-phase decay model.

[3] = tested on: BJ3 human dermal myofibroblasts; test: Myofibroblast differentiation in vitro (α-SMA expression, Western blot); assay type: cell-based
Experimental: 3.8. Determination of the Effects of Lipidated (L)-B7-33 on Myofibroblast Differentiation In Vitro
To determine if the lipidation of B7-33 prolonged its ability to suppress myofibroblast differentiation in vitro, the effects of the native B7-33 peptide vs. lipidated (L)-B7-33 were compared in BJ3 cells, a human dermal fibroblast cell line. BJ3 fibroblasts were used between passages 15–18 and cultured as described before. […] BJ3 cells were plated in 12-well plates at a density of 1–1.25 × 10^5 cells per well and were then either left untreated or stimulated with transforming growth factor (TGF)-β1 (T; 2 ng/mL) alone (to promote myofibroblast differentiation) or with T + B7-33 (100 ng/mL) or T + L-B7-33 (100 ng/mL) for a 14-day period, in media that was left unchanged over this time period. The cells from duplicate wells per treatment group were isolated from plates at 3-, 5-, 7-, 10- and 14-days post-T ± peptide treatment and extracted for protein using the RIPA lysis buffer (ThermoFisher Scientific; Scoresby, Victoria, Australia). These experiments were performed six independent times.
Half the cell protein (in 10 μL of RIPA buffer) from each sample (that was fully reconstituted in 20 μL of RIPA buffer) was loaded and electrophoresed in separate mini-protean 4–15% precast gels, and analyzed by Western blotting using a primary monoclonal antibody to α-SMA (42 kDa; M0851; […]; Agilent Technologies, Santa Clara, CA, USA). The equivalent loading of protein between samples was confirmed using a rabbit monoclonal glyceraldehyde 3-phosphate dehydrogenase (GAPDH) housekeeping antibody (37 kDa; 2118; 1:1000 dilution; Cell Signaling Technology; Danvers, MA, USA). Each membrane was then subjected to appropriate anti-mouse (7076) or anti-rabbit (7074) horseradish peroxidase-conjugated secondary antibodies (both at a 1:2000 dilution; Cell Signaling Technologies), before proteins were detected using the Clarity Western ECL substrate detection kit and quantified by densitometry with a ChemiDoc MP Imaging System and Image Lab v.6.0 software (both from Bio-Rad Laboratories, Hercules, CA, USA).The density of α-SMA from each sample was corrected for GAPDH protein levels and then expressed relative to the ratio that was measured from the unstimulated control group, which was expressed as 1 in each case. Representative blots of α-SMA and GAPDH were also chosen for presentation in each case.

[4] = tested on: cyclic adenosine monophosphate (cAMP); conditions: in fibroblasts; cited from earlier work
Source text: (§1) The human gene-2 relaxin peptide (H2 relaxin) was discovered as a hormone of reproduction. The actions of H2 relaxin during pregnancy are pleiotropic, including strong antifibrotic, angiogenic, vasodilatory, antiapoptotic, and anti-inflammatory effects. These effects are mediated through the activation of the G protein-coupled receptor, Relaxin Family Peptide Receptor 1 (RXFP1), the native receptor for H2 relaxin [5]. However, H2 relaxin also has a high affinity for, and potency on, the related Relaxin Family Peptide Receptor 2 (RXFP2, a cognate receptor for INSL3 [6]) ...

[5] = tested on: heart fibrosis, lung fibrosis; conditions: rat vs. mouse; cited from earlier work
Source text: as §1

[6] = tested on: pERK pathway; conditions: in fibroblasts; cited from earlier work
Source text: as §1

[7] = human serum 400 µL + 200 µg peptide in 100 µL water, samples 0-480 min, acetonitrile precipitation, RP-HPLC peak area vs time zero, one-phase decay fit, n = 3, duplicate

Compound	Ki [1]	half-life at 400 µg/mL [2, 7]	in vitro half-life in serum [2, 7]	in vitro serum stability, in words ([2]; human serum, RP-HPLC, n = 3 independent experiments)	α-SMA expression levels versus T-alone-stimulated cells, in words ([3]; peptide 100 ng/mL + T 2 ng/mL, after 5–14 days of culture)	suppression of TGF-α-induced increase in α-SMA expression ([3]; peptide 100 ng/mL co-administered with T (2 ng/mL), after 72 h of culture, 0.5% FCS, n = 6 in duplicate)	cAMP activation [4]	effect on fibrosis in animal models [5]	pERK pathway activation potency [6]
CCCCCCCCCCCCCCCC(=O)NCCCC[C@H](NC(=O)[C@H](CCC(=O)O)NC(=O)[C@H](Cc1ccc(O)cc1)NC(=O)[C@@H](N)CCC(=O)O)C(=O)N[C@@H](CCC(=O)O)C(=O)N[C@@H](Cc1ccc(O)cc1)C(=O)N[C@@H](CCC(=O)O)C(=O)NCCOCCOCCOCCOCCOCCOCCC(=O)N[C@H](C(=O)N[C@H](C(=O)N[C@@H](CCCCN)C(=O)N[C@@H](CC(C)C)C(=O)N[C@@H](CO)C(=O)NCC(=O)N[C@@H](CCCNC(=N)N)C(=O)N[C@@H](CCC(=O)O)C(=O)N[C@@H](CC(C)C)C(=O)N[C@H](C(=O)N[C@@H](CCCNC(=N)N)C(=O)N[C@@H](C)C(=O)N[C@@H](CCC(N)=O)C(=O)N[C@H](C(=O)N[C@@H](C)C(=O)N[C@H](C(=O)N[C@@H](CO)C(=O)NCC(=O)N[C@@H](CCSC)C(=O)N[C@@H](CO)C(=O)N[C@H](C(=O)N[C@@H](Cc1c[nH]c2ccccc12)C(=O)N[C@@H](CO)C(=O)N[C@@H](CCCCN)C(=O)N[C@@H](CCCNC(=N)N)C(=O)N[C@@H](CO)C(=O)N[C@@H](CC(C)C)C(N)=O)[C@@H](C)O)[C@@H](C)CC)[C@@H](C)CC)C(C)C)[C@@H](C)CC)C(C)C [Tag-PEG6-B7-33]	> 10 µM								
VIKLSGRELVRAQIAISGMSTWSKRSL-NH2 [Analogue B7-33]		~6 min	6 min	degrades within minutes	fully returned to those measured for T-alone-stimulated cells	almost fully suppressed	barely activate	reversed or resolved fibrosis	potency similar to H2 relaxin
